Test results: patent US20160220567A1, “COMPOSITION FOR TREATING OR PREVENTING BONE DISEASES, COMPRISING HALOFUGINONE AS ACTIVE INGREDIENT” (THE CATHOLIC UNIVERSITY OF KOREA INDUSTRY-ACADEMIC …, priority 2013, published 2016)

Legend:
[1] = test system: anti-CII-specific IgG, IgG1, and IgG2a; experiment: Type II collagen-specific IgG, IgG1 and IgG2a in sera by ELISA; format: in vivo, mouse; details: CIA mice, sera 4 weeks after injection, FIG. 1D
Method: (§1) For the construction of a mouse model with collagen-induced arthritis (hereinafter, referred to as “CIA”), a 6-week old male DBA/1J mouse was subjected to primary immunization by intradermal injection after mixing the bovine type II collagen (hereinafter, referred to as “CII”) and complete Freud's adjuvant (CFA) in an amount of 100 μL, respectively. After a week thereafter, halofuginone was injected intraperitoneally at 3 day intervals at a concentration of 100 μg/kg and 500 μg/kg, respectively (9 weeks).
The concentrations of murine anti-CII-specific IgG, IgG1, and IgG2a were measured by ELISA method by collecting sera from a mouse with arthritis 4 weeks after injecting the mouse with halofuginone (Bethyl Lab Co., Montgomery, Tex., USA). The group treated with a solution in which DMSO was diluted in saline was used as the control group.
The method of measuring the anti-CII-specific IgG, IgG1, and IgG2a antibodies is as follows. The CII was diluted in 0.05M sodium carbonate coating buffer (pH 9.6) at a concentration of 4 μg/mL, coated onto a 96-well microtiter plate, and placed at 4° C. for 18 hours. After removing the coated solution, for the inhibition of non-specific binding, TBS (pH 8.0) containing 1% bovine serum albumin (BSA: Amre-sco, solon, Ohio, USA) was added in an amount of 200 μL thereto and reacted at room temperature for 1 hour. For the measurement of anti-CII-specific IgG, IgG1, and IgG2a antibodies, the specimen was diluted at a 1:1,000 ratio, and in particular, TBS (pH 8.0) containing 1% BSA and 0.05% Tween 20 (Amresco) was used as the diluted solution. Then, the sera sample diluted in advance was added to each well in an amount of 50 μL and reacted at room temperature for 1 hour. […] The absorbance of the resultant was measured at 450 nm using the ELISA reader and the result of antibody measurement was indicated by absorbance itself.

[2] = test system: Rcan3 and Sox6; experiment: Expression of Rcan3 and Sox6 in joint tissue of CII-immunized DBA/1J mice by immunohistochemical staining; format: in vivo, mouse; details: 500 μg/kg intraperitoneally, 50 days, vs untreated group, FIG. 7
Text: Furthermore, to examine whether the halofuginone compound of the present invention can promote the differentiation and the activity of osteoblasts, the present inventors performed the following experiment for the purpose of confirming the effect of the halofuginone compound on the expression and the activity of Rcan3 and Sox6, which are factors associated with the differentiation of osteoblasts. Specifically, the DBA/1J mice were subjected to the primary immunization by intradermally injecting bovine type II collagen (hereinafter, “CII”) in an amount of 100 μL, and one week thereafter, injected intraperitoneally with halofuginone (500 μg/kg). Fifty days thereafter, the mice were sacrificed, and the expression levels of Rcan3 and Sox6 in the joint tissue of the mice were confirmed via immunohistochemical staining method. The group of mice not treated with halofuginone was used as the control group.
The immunohistochemical staining method was performed as follows. The joints of the mice group used above were collected, fixed with 10% neutral buffered formalin, the bones were decalcified with Calci-Clear Rapid bone decalcifier and embedded in paraffin, the joint tissue was prepared into 7 μm-thick slices and attached to slides. […]

[3] = test system: Th17- and Treg cells in splenocytes; experiment: Th17 and Treg cells, pSTAT3 and pSTAT5 in splenocytes of CIA mice by immunostaining and confocal microscope; format: in vivo, mouse
Method: as §1
To examine the effect of halofuginone treatment in an animal model on Th17 and Treg factors, the measurement was performed using a confocal microscope after the immunostaining. Specifically, the spleens of the mice in the experimental group and control group in Examples were collected and embedded with an OCT compound, and the tissues rapidly cooled using liquid nitrogen were sliced into a thickness of 7 μm using a cryo microtome, and attached to slides. The sliced sections attached to the slides were fixed with acetone, and non-specific binding was blocked by reacting with 10% normal goat serum for 30 minutes. The first antibodies, i.e., FITC-labeled anti-Foxp3 Ab, PElabeled anti-IL-17 Ab APC-labeled anti-CD4 Ab, Allophycocyanin-labeled anti-CD25 Ab (Biolegend), biotinylated anti-CD4 Ab (BD Biosciences, San Jose, Calif., USA), were diluted in PBS (pH 7.5) at a 1:100 ratio and reacted at 4° C. overnight. On the next day, the resultant was washed with PBS and reacted with streptavidin cy-3 at room temperature for 2 hours. The stained tissues were analyzed using a confocal microscope (LSM 510 Meta. Zeiss, Gottingen, Germany), and the number of IL-17+ cells and Foxp3+ cells were scored under a microscopic observation, and the results are shown in graphs. Meanwhile, pSTAT3 and pSTAT5 were immunostained in the same manner as described above and the measurement was performed using a confocal microscope, and in particular, PE-conjugated anti-phospho-Stat3 (Y705 and S727; 1:50), and Alexa Fluor 488-conjugated anti-phospho-Stat5 (Y694; 1:100) (all from BD Biosciences) antibodies were used.

[4] = test system: osteoclasts (TRAP positive cells) in the joint; experiment: Osteoclast differentiation potential in the joint of arthritis animal model by TRAP staining; format: in vivo, mouse; details: joint of CIA mice, FIG. 4A
Method: as §1
To examine the osteoclast differentiation potential in the joint of the animal model with arthritis by TRAP staining, the marker enzyme of osteoclasts were subjected to TRAP staining using the leukocyte acid phosphatase Kit (387-A, Sigma, St. Louis, Mo., USA) according to the manufacturer's manual. The cells having at least 5 nuclei among the TRAP positive cells (red color) were regarded as osteoclasts.

[5] = test system: osteoclasts from murine bone marrow cells; experiment: Bone resorption potential by osteoclasts on Dentine slice, murine bone marrow cells; format: cell-based, mouse; details: M-CSF, RANKL, 21 days, FIG. 5B
Method: To examine the effect of halofuginone on the bone resorption potential by osteoclasts, murine bone marrow cells were cultured in Dentine slice, and the cultured cells were stimulated with M-CSF, RANKL, and halofuginone, and cultured for 21 additional days. Then, the cells were removed using 5% sodium hypochlorite solution, subjected to Hematoxylin staining, and the bone resorption lacunae formed by the bone resorption of osteoclasts were photographed.

[6] = CD4+ cells of splenocytes of CIA mice, immunostaining
[7] = splenocytes of CIA mice injected with halofuginone, FIG. 2A

O=C(C[C@H]1NCCC[C@@H]1O)Cn1cnc2cc(Br)c(Cl)cc2c1=O (racemic) [halofuginone]
concentration of IgG1 within the sera [1]: significantly decreased | concentration of IgG2a within the sera [1]: significantly decreased | concentration of IgG within the sera [1]: significantly decreased | expression of Rcan3 [2]: significant increase | expression of Sox6 [2]: significant increase | expression of pSTAT3 [3, 6]: decreased | expression of pSTAT5 [3, 6]: increased | number of Th17 cells [3, 7]: decreased | number of Treg cells [3, 7]: increased | number of TRAP positive cells [4]: decreased | bone resorption potential [5]: significantly reduced
